The source of these data is patent US20120190669A1, “OXINDOLE COMPOUNDS” (CYLENE PHARMACEUTICALS, INC., priority 2008, published 2012).

For one assay, the system named is BxPC3. In words: Alamar Blue cell proliferation assay, BxPC3. The assay is classed as cell-based. Particulars: Homo sapiens, BXPC-3, Table 4, read-out: AB: BxPC3. The procedure:
(§1) A representative cell-proliferation assay protocol using Alamar Blue dye (stored at 4° C., use 20 ul per well) is described hereafter.
(§2) 96-Well Plate Setup and Compound Treatment
(§3) a. Split and trypsinize cells.
(§4) b. Count cells using hemocytometer.
(§5) c. Plate 4,000-5,000 cells per well in 100 μl of medium and seed into a 96-well plate according to the following plate layout. Add cell culture medium only to wells B10 to B12. Wells B1 to B9 have cells but no compound added.
(§6) d. Add 100 μl of 2× drug dilution to each well in a concentration shown in the plate layout above. At the same time, add 100 μl of media into the control wells (wells 1310 to B12). Total volume is 200 μl/well.
(§7) e. Incubate four (4) days at 37° C., 5% CO2 in a humidified incubator.
(§8) f. Add 20 μl Alamar Blue reagent to each well.
(§9) g. Incubate for four (4) hours at 37° C., 5% CO2 in a humidified incubator.
(§10) h. Record fluorescence at an excitation wavelength of 544 nm and emission wavelength of 590 nm using a microplate reader.
(§11) In the assays, cells are cultured with a test compound for approximately four days, the dye is then added to the cells and fluorescence of […] dye is detected after approximately four hours. Different types of cells can be utilized in the assays (e.g., HCT-116 human colorectal carcinoma cells, PC-3 human prostatic cancer cells and MiaPaca human pancreatic carcinoma cells).

The next assay concerns MDAMB-231. In words: Alamar Blue cell proliferation assay, MDAMB-231. The assay is classed as cell-based. Particulars: Homo sapiens, MDA-MB-231, Table 4, read-out: AB: MDAMB231. As to the method: as §1, §2, §3, §4, §5, §6, §7, §8, §9, §10, §11
For orientation: Resazurin is reduced to fluorescent resorufin, in cell work by metabolically active cells.

Another assay deals with K-562. Briefly: Alamar Blue cell proliferation assay, K-562. Type of assay: cell-based. Particulars: Homo sapiens, K562, Table 4, read-out: AB: K-562. The procedure: as §1, §2, §3, §4, §5, §6, §7, §8, §9, §10, §11
A further assay has as its system MV-4-11. Briefly: Alamar Blue cell proliferation assay, MV-4-11. Type of assay: cell-based. Particulars: Homo sapiens, MV4-11, Table 4, read-out: AB: MV-4-11. The procedure: as §1, §2, §3, §4, §5, §6, §7, §8, §9, §10, §11
In a further assay the test system is phospho BAD. In words: phospho BAD cell-based data. Particulars: Table 4.
Another assay concerns phospho FLT3. In words: phospho FLT3 cell-based data. Particulars: Table 4.
Assay [1] relates to leukemic cells from AML patients. Particulars: Fedorov et al., PNAS 104(51); cited from earlier work.
The next assay concerns MOLM-13 (AML) xenograft. Particulars: 2008 AACR Annual Meeting, Abstract No. 4974; cited from earlier work.
The subject of another assay is MV-4-11 (AML) xenograft. Particulars: 2008 AACR Annual Meeting, Abstract No. 4974; cited from earlier work.

With `C/C(=C1\C(=O)Nc2ccc(Cl)cc21)c1ccc(-c2cccc(C(=O)N3CCCN(C)CC3)c2)o1`, the IC50 in the assay on BxPC3 was 785 nM; in the assay on MDAMB-231, 816 nM; in the assay with K-562, 777 nM; with MV-4-11, 178 nM; in the assay with phospho BAD, 1760 nM; in the assay on phospho FLT3, 9060 nM.
Turning to `CN(C)C[C@@H]1CCn2cc(c3ccccc32)C2=C(C(=O)NC2=O)c2cn(c3ccccc23)CCO1` [Ly5333′531], the “cell growth and cell death in leukemic cells from AML patients” value in assay [1] was “suppressed cell growth and induced cell death”.
Take `CN1CCC(CNc2ccc3ncc(-c4cccc(OC(F)(F)F)c4)n3n2)CC1` [SGI-1776]: the “tumor regression in MOLM-13 (AML) xenograft model” value with MOLM-13 (AML) xenograft is on record as “significant tumor regression”. For the same molecule, the “tumor regression in MV-4-11 (AML) xenograft model” value with MV-4-11 (AML) xenograft was “significant tumor regression”.
